Data published in PubChem BioAssay (NCI).
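In this assay, cells in 96-well plates receive the compound at five concentrations for 48 hours. Endpoints are linearly interpolated between the surrounding concentrations. Here, GI50 denotes the concentration required for 50% inhibition of growth. TGI denotes the concentration required for complete inhibition of growth.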

Experiments:
Assay in all cases: growth of human tumour cells (NCI), 48 h
UO-31 renal = system: UO-31 renal
SF-268 CNS = system: SF-268 CNS
KM12 colon = system: KM12 colon
SNB-19 CNS = system: SNB-19 CNS
SNB-75 CNS = system: SNB-75 CNS
SW-620 colon = system: SW-620 colon
HOP-62 NSCLC = system: HOP-62 NSCLC
HL-60(TB) leukemia = system: HL-60(TB) leukemia
MDA-MB-435 = system: MDA-MB-435
M14 melanoma = system: M14 melanoma
MOLT-4 leukemia = system: MOLT-4 leukemia
A498 renal = system: A498 renal
UACC-62 melanoma = system: UACC-62 melanoma
A549 NSCLC = system: A549 NSCLC
BT-549 breast = system: BT-549 breast
OVCAR-8 ovarian = system: OVCAR-8 ovarian
HOP-92 NSCLC = system: HOP-92 NSCLC
SF-295 CNS = system: SF-295 CNS
SK-OV-3 ovarian = system: SK-OV-3 ovarian
CAKI-1 renal = system: CAKI-1 renal
DU-145 prostate = system: DU-145 prostate
COLO 205 colon = system: COLO 205 colon
OVCAR-5 ovarian = system: OVCAR-5 ovarian
HCT-116 colon = system: HCT-116 colon
MDA-MB-231 breast = system: MDA-MB-231 breast
SK-MEL-5 melanoma = system: SK-MEL-5 melanoma
MALME-3M melanoma = system: MALME-3M melanoma
OVCAR-3 ovarian = system: OVCAR-3 ovarian
PC-3 prostate = system: PC-3 prostate

C=CC(=O)N[C@H]1CCOC[C@H]1Nc1ncc2cc(-c3c(Cl)c(OC)cc(OC)c3Cl)ccc2n1
GI50 (UO-31 renal): 4.28 µM
TGI (UO-31 renal): > 100 µM
GI50 (SF-268 CNS): 16.2 µM
TGI (SF-268 CNS): > 100 µM
GI50 (KM12 colon): 27.1 µM
TGI (KM12 colon): > 100 µM
GI50 (SNB-19 CNS): 26.5 µM
TGI (SNB-19 CNS): > 100 µM
GI50 (SNB-75 CNS): 12 µM
TGI (SNB-75 CNS): > 100 µM
GI50 (SW-620 colon): 27.5 µM
TGI (SW-620 colon): > 100 µM
GI50 (HOP-62 NSCLC): 43 µM
TGI (HOP-62 NSCLC): > 100 µM
GI50 (HL-60(TB) leukemia): 12 µM
TGI (HL-60(TB) leukemia): 64.5 µM
GI50 (MDA-MB-435): 15.3 µM
TGI (MDA-MB-435): 65.8 µM
GI50 (M14 melanoma): 11.8 µM
TGI (M14 melanoma): 40.2 µM
GI50 (MOLT-4 leukemia): 6.43 µM
TGI (MOLT-4 leukemia): > 100 µM
GI50 (A498 renal): 3.36 µM
TGI (A498 renal): 33.7 µM
GI50 (UACC-62 melanoma): 10.7 µM
TGI (UACC-62 melanoma): 30.6 µM
GI50 (A549 NSCLC): 30.5 µM
TGI (A549 NSCLC): > 100 µM
GI50 (BT-549 breast): 2.86 µM
TGI (BT-549 breast): 15.8 µM
GI50 (OVCAR-8 ovarian): 39.3 µM
TGI (OVCAR-8 ovarian): > 100 µM
GI50 (HOP-92 NSCLC): 5.38 µM
TGI (HOP-92 NSCLC): 51.3 µM
GI50 (SF-295 CNS): 16 µM
TGI (SF-295 CNS): > 100 µM
GI50 (SK-OV-3 ovarian): 26.9 µM
TGI (SK-OV-3 ovarian): > 100 µM
GI50 (CAKI-1 renal): 12.5 µM
TGI (CAKI-1 renal): > 100 µM
GI50 (DU-145 prostate): 24.4 µM
TGI (DU-145 prostate): > 100 µM
GI50 (COLO 205 colon): 13.8 µM
TGI (COLO 205 colon): 29.5 µM
GI50 (OVCAR-5 ovarian): 45.1 µM
TGI (OVCAR-5 ovarian): > 100 µM
GI50 (HCT-116 colon): 12.7 µM
TGI (HCT-116 colon): 57.2 µM
GI50 (MDA-MB-231 breast): 17.7 µM
TGI (MDA-MB-231 breast): > 100 µM
GI50 (SK-MEL-5 melanoma): 7.06 µM
TGI (SK-MEL-5 melanoma): 20.9 µM
GI50 (MALME-3M melanoma): 13.1 µM
TGI (MALME-3M melanoma): 64 µM
GI50 (OVCAR-3 ovarian): 20.3 µM
TGI (OVCAR-3 ovarian): > 100 µM
GI50 (PC-3 prostate): 14.8 µM
TGI (PC-3 prostate): > 100 µM
